From patent US11472838B2, “Inhibitors of blood coagulation factor XIII” (Zedira GmbH, priority 2018, dated 2022)
Like-named read-outs stand apart in the source and are kept apart here. *1 amine or outer side, *2 acyl side, *3 side chain or, on linkers, in order; H or OH if unused. Where a SMILES comes first, the peptide text is derived from it. [ ]: non-standard residue; d: D form. The star is where a group is joined. ξ: configuration not given here. Benzoyl(3-COOH,5-NO2) = O=C(O)c1cc(C(=O)*)cc([N+](=O)[O-])c1; Benzoyl(2-COOH,5-NO2) = O=C(O)c1ccc([N+](=O)[O-])cc1C(=O)*; Pro(3S,4R-(CH2)3) = O=C(O)[C@H]1NC[C@@H]2CCC[C@@H]21; Nle(5E-ene,6-CO2Et) = CCOC(=O)/C=C/CC[C@H](N)C(=O)O; Isonicotinoyl(3-COOH) = O=C(O)c1cnccc1C(=O)*; X1 = COC(=O)/C=C/CC[C@H](N[*:1])C(=O)[*:2]; X5 = CNC(=O)/C=C/CC[C@H](N[*:1])C(=O)[*:2]; X8 = NC(=O)/C=C/CC[C@H](N[*:1])C(=O)[*:2]; Pro(4-methylene) = C=C1CN[C@H](C(=O)O)C1; X2 = O=C(O)c1cc([N+](=O)[O-])ccc1C(=O)*; X3 = O=C(c1cnc(O)c([N+](=O)[O-])c1)*; Pro(4-oxo) = O=C1CN[C@H](C(=O)O)C1; Thiophene2carbonyl = O=C(c1cccs1)*; Ala(cPr) = N[C@@H](CC1CC1)C(=O)O; Thr(3ξ) = CC(O)[C@H](N)C(=O)O; Chg = N[C@H](C(=O)O)C1CCCCC1; Tle = CC(C)(C)[C@H](N)C(=O)O; X4 = O=C(O)c1cncc(C(=O)*)c1; Pip = O=C(O)[C@@H]1CCCCN1; X7 = O=C(O)c1nccnc1C(=O)*; NHIsopentyl = CC(C)CCN*; Cbz = O=C(OCc1ccccc1)*

How the values were obtained:
FXIII = FXIII (Homo sapiens (Human), UniProt P00488); experiment: Inhibitory activity against FXIII (isopeptidase assay), Tables 3 and 4; assay type: biochemical;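 also: FXIIIa activity read with a peptide substrate derived from the α2-antiplasmin N-terminal dodecapeptide, FXIII activated beforehand at room temperature, inhibitor-free wells with DMSO buffer as control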
Procedure: (§1) FXIIIa activity has been determined using substrate A101 (Zedira GmbH, Darmstadt, Germany), which is based on the N-terminal dodecapeptide of α2-antipiasmin.
(§2) The mixture was incubated for 20 min at room temperature to activate FXIII. […] For measurements without inhibitor, 15 μL of assay buffer/2% (v/v) DMSO were added. All measurements were performed in triplicate. The respective IC50 values were calculated by non-linear regression using the MARS software package (BMG Labtech).

[1] = Stability of compounds in plasma (HPLC); conditions: for recovery in plasma determined by HPLC: 37° C., over a period of 2 hours
Procedure: Further, the stability of compounds in plasma was determined as prerequisite for drug-likeness. Briefly, after spiking the chemical entities, the plasma was incubated at 37° C. At certain time points (e.g. at 15 and 120 minutes), 3 vol. cold MeOH were added to extract the compounds. After centrifugation, the supernatant was analyzed by HPLC. The half life was calculated based on the respective calibration curve.

TG2 = TG2 (Homo sapiens (Human), UniProt P21980); experiment: Inhibitory activity against TG2 (isopeptidase assay), Tables 3 and 4; assay type: biochemical; conditions: for Selectivity: TG2 versus FXIII
Procedure: as §1, §2

[2] = isopeptidase assay, Table 3, read-out: IC50 [nM] FXIII
[3] = isopeptidase assay, Table 3, read-out: IC50 [nM] TG2

Sequence of TG2 (P21980 whole entry): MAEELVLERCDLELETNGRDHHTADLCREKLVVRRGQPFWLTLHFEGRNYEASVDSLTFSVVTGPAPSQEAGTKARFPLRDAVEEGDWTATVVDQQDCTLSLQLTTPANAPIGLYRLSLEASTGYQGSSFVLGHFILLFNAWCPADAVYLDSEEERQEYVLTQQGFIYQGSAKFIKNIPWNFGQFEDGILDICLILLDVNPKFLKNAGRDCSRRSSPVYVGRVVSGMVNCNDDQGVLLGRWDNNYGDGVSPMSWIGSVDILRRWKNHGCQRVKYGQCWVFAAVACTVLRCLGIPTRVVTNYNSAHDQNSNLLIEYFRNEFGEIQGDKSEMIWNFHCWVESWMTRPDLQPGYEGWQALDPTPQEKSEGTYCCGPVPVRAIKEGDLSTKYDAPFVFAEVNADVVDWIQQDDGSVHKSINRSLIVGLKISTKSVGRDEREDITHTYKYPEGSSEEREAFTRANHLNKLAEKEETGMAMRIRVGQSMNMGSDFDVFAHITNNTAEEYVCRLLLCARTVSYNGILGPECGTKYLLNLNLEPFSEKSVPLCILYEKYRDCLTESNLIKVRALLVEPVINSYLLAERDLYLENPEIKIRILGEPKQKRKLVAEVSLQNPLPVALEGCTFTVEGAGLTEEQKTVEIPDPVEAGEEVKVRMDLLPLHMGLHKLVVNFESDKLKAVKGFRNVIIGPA
Sequence of FXIII (P00488 39-732): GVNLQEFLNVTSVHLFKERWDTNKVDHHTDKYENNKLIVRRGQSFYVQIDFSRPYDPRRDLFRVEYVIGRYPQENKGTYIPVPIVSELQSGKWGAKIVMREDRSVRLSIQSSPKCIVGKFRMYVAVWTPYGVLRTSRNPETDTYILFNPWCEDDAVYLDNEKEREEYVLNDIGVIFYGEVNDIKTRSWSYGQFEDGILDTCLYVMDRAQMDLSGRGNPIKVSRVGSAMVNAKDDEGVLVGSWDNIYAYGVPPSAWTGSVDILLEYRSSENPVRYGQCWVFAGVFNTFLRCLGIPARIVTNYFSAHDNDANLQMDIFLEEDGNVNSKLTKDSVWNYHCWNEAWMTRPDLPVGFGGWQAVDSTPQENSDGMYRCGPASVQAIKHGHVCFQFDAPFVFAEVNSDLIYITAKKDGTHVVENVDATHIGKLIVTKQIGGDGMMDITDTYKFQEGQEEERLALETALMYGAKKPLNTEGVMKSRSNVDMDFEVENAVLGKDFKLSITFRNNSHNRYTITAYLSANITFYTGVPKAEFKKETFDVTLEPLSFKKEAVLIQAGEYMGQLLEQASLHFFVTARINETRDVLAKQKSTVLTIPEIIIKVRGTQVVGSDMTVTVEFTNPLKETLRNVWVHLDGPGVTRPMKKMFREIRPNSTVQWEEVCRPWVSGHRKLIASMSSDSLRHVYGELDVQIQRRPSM

Row | Compound | IC50 (FXIII; [2]) | recovery in plasma determined by HPLC [1] | Selectivity (TG2; isopeptidase assay, Table 3) | IC50 (TG2; [3]) | recovery at 2 h [1] | IC50 (FXIII; Table 4, read-out: FXIII IC50) | Selectivity (TG2; Table 4) | IC50 (TG2; Table 4, read-out: TG2 IC50)
1 | CCOC(=O)/C=C/CC[C@H](NC(=O)c1ccncc1C(=O)O)C(=O)N[C@H](C(=O)N1CC(=O)C[C@H]1C(=O)N[C@H](C(=O)N[C@H](C(N)=O)C1CCCCC1)C1CCCCC1)C(C)(C)C [8a/b] ({Isonicotinoyl(3-COOH)}-[Nle(5E-ene,6-CO2Et)][Tle][Pro(4-oxo)][Chg][Chg]-NH2) | 21 nM | > 75% | 19.9 | 417 nM |  |  |  | 
2 | CC(C)(C)[C@H](NC(=O)[C@H](CC/C=C/C(N)=O)NC(=O)c1ccncc1C(=O)O)C(=O)N1CC(=O)C[C@H]1C(=O)N[C@H](C(=O)N[C@H](C(N)=O)C1CCCCC1)C1CCCCC1 [15a/b] ({Isonicotinoyl(3-COOH)}-[X8][Tle][Pro(4-oxo)][Chg][Chg]-NH2) | 69 nM | > 75% | 7.0 | 483 nM |  |  |  | 
3 | CNC(=O)/C=C/CC[C@H](NC(=O)c1ccncc1C(=O)O)C(=O)N[C@H](C(=O)N1CC(=O)C[C@H]1C(=O)N[C@H](C(=O)N[C@H](C(N)=O)C1CCCCC1)C1CCCCC1)C(C)(C)C [17a/b] ({Isonicotinoyl(3-COOH)}-[X5][Tle][Pro(4-oxo)][Chg][Chg]-NH2) | 41 nM | > 75% | 7.2 | 295 nM |  |  |  | 
4 | COC(=O)/C=C/CC[C@H](NC(=O)c1ccncc1C(=O)O)C(=O)N[C@H](C(=O)N1CC(=O)C[C@H]1C(=O)N[C@H](C(=O)N[C@H](C(=O)O)C1CCCCC1)C1CCCCC1)C(C)(C)C [34a/b] ({Isonicotinoyl(3-COOH)}-[X1][Tle][Pro(4-oxo)][Chg][Chg]-OH) | 123 nM | > 75% | 2.7 | 356 nM |  |  |  | 
5 | COC(=O)/C=C/CC[C@H](NC(=O)c1ccncc1C(=O)O)C(=O)N[C@H](C(=O)N1CC(=O)C[C@H]1C(=O)N[C@H](C(=O)N[C@H](C(=O)OC)C1CCCCC1)C1CCCCC1)C(C)(C)C [35a/b] ({Isonicotinoyl(3-COOH)}-[X1][Tle][Pro(4-oxo)][Chg][Chg]-OMe) | 86 nM | > 75% | 2.3 | 198 nM |  |  |  | 
6 | CNC(=O)[C@@H](NC(=O)[C@@H](NC(=O)[C@@H]1CC(=O)CN1C(=O)[C@@H](NC(=O)[C@H](CC/C=C/C(=O)OC)NC(=O)c1ccncc1C(=O)O)C(C)(C)C)C1CCCCC1)C1CCCCC1 [36a/b] ({Isonicotinoyl(3-COOH)}-[X1][Tle][Pro(4-oxo)][Chg][Chg]-NHMe) | 41 nM | > 75% | 4.1 | 168 nM |  |  |  | 
7 | COC(=O)/C=C/CC[C@H](NC(=O)c1ccncc1C(=O)O)C(=O)N[C@@H](CCSC)C(=O)N1CC(=O)C[C@H]1C(=O)N[C@H](C(=O)N[C@H](C(N)=O)C1CCCCC1)C1CCCCC1 [37a/b] ({Isonicotinoyl(3-COOH)}-[X1]M[Pro(4-oxo)][Chg][Chg]-NH2) | 69 nM | > 75% | 4.7 | 324 nM |  |  |  | 
8 | COC(=O)/C=C/CC[C@H](NC(=O)c1nccnc1C(=O)O)C(=O)N[C@H](C(=O)N1CC(=O)C[C@H]1C(=O)N[C@H](C(=O)N[C@H](C(N)=O)C1CCCCC1)C1CCCCC1)C(C)(C)C [Compound 3] (X7-[X1][Tle][Pro(4-oxo)][Chg][Chg]-NH2) | 20 nM |  | 0.8 | 16 nM | > 75% |  |  | 
9 | COC(=O)/C=C/CC[C@H](NC(=O)c1cc(C(=O)O)cc([N+](=O)[O-])c1)C(=O)N[C@H](C(=O)N1CC(=O)C[C@H]1C(=O)N[C@H](C(=O)N[C@H](C(N)=O)C1CCCCC1)C1CCCCC1)C(C)(C)C [Compound 4] ({Benzoyl(3-COOH,5-NO2)}-[X1][Tle][Pro(4-oxo)][Chg][Chg]-NH2) | 13 nM |  | 1.1 | 14 nM | > 75% |  |  | 
10 | COC(=O)/C=C/CC[C@H](NC(=O)c1cnc(O)c([N+](=O)[O-])c1)C(=O)N[C@H](C(=O)N1CC(=O)C[C@H]1C(=O)N[C@H](C(=O)N[C@H](C(N)=O)C1CCCCC1)C1CCCCC1)C(C)(C)C [Compound 6] (X3-[X1][Tle][Pro(4-oxo)][Chg][Chg]-NH2) | 17 nM |  | 0.7 | 12 nM | > 75% |  |  | 
11 | COC(=O)/C=C/CC[C@H](NC(=O)c1cncc(C(=O)O)c1)C(=O)N[C@H](C(=O)N1CCC[C@H]1C(=O)N[C@H](C(=O)N[C@H](C(N)=O)C1CCCCC1)C1CCCCC1)C(C)(C)C [Compound 27] (X4-[X1][Tle]P[Chg][Chg]-NH2) | 27 nM |  | 2.4 | 64 nM | > 75% |  |  | 
12 | COC(=O)/C=C/CC[C@H](NC(=O)c1cnc(O)c([N+](=O)[O-])c1)C(=O)N[C@H](C(=O)N1C[C@@H]2CCC[C@@H]2[C@H]1C(=O)N[C@H](C(=O)N[C@H](C(N)=O)C1CCCCC1)C1CCCCC1)C(C)(C)C [Compound 28] (X3-[X1][Tle][Pro(3S,4R-(CH2)3)][Chg][Chg]-NH2) | 36 nM |  | 1.1 | 41 nM | > 75% |  |  | 
13 | CCOC(=O)/C=C/CC[C@H](NC(=O)c1cccs1)C(=O)N[C@@H](CC1CC1)C(=O)N1CCC[C@H]1C(=O)N[C@@H](CC(C)C)C(=O)N[C@H](C(N)=O)C1CCCCC1 [Compound 41] (Thiophene2carbonyl-[Nle(5E-ene,6-CO2Et)][Ala(cPr)]PL[Chg]-NH2) |  |  |  |  | > 75% |  |  | 
14 | C=C1C[C@@H](C(=O)N[C@@H](CC(C)C)C(=O)N[C@H](C(N)=O)C2CCCCC2)N(C(=O)[C@@H](NC(=O)[C@H](CC/C=C/C(=O)OCC)NC(=O)c2ccc([N+](=O)[O-])cc2C(=O)O)C(C)(C)C)C1 [Compound 42a] (X2-[Nle(5E-ene,6-CO2Et)][Tle][Pro(4-methylene)]L[Chg]-NH2) |  |  |  |  | > 75% |  |  | 
15 | C=C1C[C@@H](C(=O)N[C@@H](CC(C)C)C(=O)N[C@H](C(N)=O)C2CCCCC2)N(C(=O)[C@@H](NC(=O)[C@H](CC/C=C/C(=O)OCC)NC(=O)c2cc([N+](=O)[O-])ccc2C(=O)O)C(C)(C)C)C1 [Compound 42b] ({Benzoyl(2-COOH,5-NO2)}-[Nle(5E-ene,6-CO2Et)][Tle][Pro(4-methylene)]L[Chg]-NH2) |  |  |  |  | > 75% |  |  | 
16 | CCOC(=O)/C=C/CC[C@H](NC(=O)OCc1ccccc1)C(=O)N[C@H](C(=O)N1CCCC[C@H]1C(=O)N[C@@H](CC(C)C)C(=O)OC)C(C)C [Ref. 6, reference compound] (Cbz-[Nle(5E-ene,6-CO2Et)]V[Pip]L-OMe) | > 10000 nM |  |  | 48 nM |  |  |  | 
17 | CCOC(=O)/C=C/CC[C@H](NC(=O)OCc1ccccc1)C(=O)N[C@H](C(=O)N1CCC[C@H]1C(=O)N[C@@H](CC(C)C)C(=O)N[C@H](C(N)=O)C1CCCCC1)C(C)C [Ref. 08, reference compound] (Cbz-[Nle(5E-ene,6-CO2Et)]VPL[Chg]-NH2) |  |  |  |  |  | 3650 nM | 0.01 | 36 nM
18 | CCOC(=O)/C=C/CC[C@H](NC(=O)OCc1ccccc1)C(=O)N[C@@H](CCC(N)=O)C(=O)N1CCC[C@H]1C(=O)N[C@@H](CC(C)C)C(=O)N[C@H](C(N)=O)C1CCCCC1 [Ref. 09, reference compound] (Cbz-[Nle(5E-ene,6-CO2Et)]QPL[Chg]-NH2) |  |  |  |  |  | 5690 nM |  | 26 nM
19 | CCOC(=O)/C=C/CC[C@H](NC(=O)OCc1ccccc1)C(=O)N[C@H](C(=O)N1CCC[C@H]1C(=O)N[C@H](C(=O)NCCC(C)C)C1CCCCC1)C(C)C [Ref. 10, reference compound] (Cbz-[Nle(5E-ene,6-CO2Et)]VP[Chg]-NHIsopentyl) |  |  |  |  |  | 8180 nM | 0.02 | 176 nM
20 | CCOC(=O)/C=C/CC[C@H](NC(=O)c1cccs1)C(=O)N[C@@H](CCC(N)=O)C(=O)N1CCC[C@H]1C(=O)N[C@@H](CC(C)C)C(=O)N[C@H](C(N)=O)C1CCCCC1 [Ref. 11, reference compound] (Thiophene2carbonyl-[Nle(5E-ene,6-CO2Et)]QPL[Chg]-NH2) |  |  |  |  |  | 5360 nM | 0.05 | 253 nM
21 | CCOC(=O)/C=C/CC[C@H](NC(=O)OCc1ccccc1)C(=O)N[C@H](C(=O)N1CCC[C@H]1C(=O)N[C@@H](CC(C)C)C(=O)N[C@H](C(N)=O)C1CCCCC1)C1CCCCC1 [Ref. 12, reference compound] (Cbz-[Nle(5E-ene,6-CO2Et)][Chg]PL[Chg]-NH2) |  |  |  |  |  | 6770 nM | 0.05 | 345 nM
22 | COC(=O)/C=C/CC[C@H](NC(=O)[C@H](CC(N)=O)NC(C)=O)C(=O)N[C@@H](CCC(=O)O)C(=O)N[C@@H](CCC(N)=O)C(=O)N[C@H](C(=O)N[C@@H](CO)C(=O)N1CCC[C@H]1C(=O)N[C@@H](CC(C)C)C(=O)N[C@H](C(=O)N[C@@H](CC(C)C)C(=O)O)C(C)O)C(C)C (stereo partly drawn) [Ref. 19, reference compound] (Ac-N[X1]EQVSPL[Thr(3ξ)]L-OH) |  |  |  |  |  | 4980 nM | 0.07 | 370 nM
23 | COC(=O)/C=C/CC[C@H](NC(=O)[C@H](CC(N)=O)NC(C)=O)C(=O)N[C@@H](CCC(=O)O)C(=O)N[C@@H](CCC(N)=O)C(=O)N[C@H](C(=O)N[C@@H](CO)C(=O)N1CCC[C@H]1C(=O)N[C@@H](CC(C)C)C(=O)N[C@H](C(=O)O)C(C)O)C(C)C (stereo partly shown) [Ref. 20, reference compound] (Ac-N[X1]EQVSPL[Thr(3ξ)]-OH) |  |  |  |  |  | 8480 nM | 0.04 | 381 nM
24 | COC(=O)/C=C/CC[C@H](NC(=O)[C@H](CC(N)=O)NC(C)=O)C(=O)N[C@@H](CCC(=O)O)C(=O)N[C@@H](CCC(N)=O)C(=O)N[C@H](C(=O)N[C@@H](CO)C(=O)N1CCC[C@H]1C(=O)N[C@@H](CC(C)C)C(=O)O)C(C)C [Ref. 21, reference compound] (Ac-N[X1]EQVSPL-OH) |  |  |  |  |  | > 10 nM |  | 421 nM
25 | CCC(CC)CNC(=O)Cn1cccc(NC(=O)[C@H](CC/C=C/C(=O)OC)NC(=O)c2cncn2C)c1=O [Ref. 25] |  |  |  |  |  | > 10 nM |  | 
